{"source": "paper PMC12259270", "about": "“Sensory neuron–expressed FGF13 controls nociceptive signaling in diabetic neuropathy models” (The Journal of Clinical Investigation, 2025)", "target": "T1, human Nav1.7 (Homo sapiens, UniProt Q15858)", "T1 construct": "expressed in transfected cells; host or cells: HEK293 stably expressing human Nav1.7", "T1 sequence (Q92913 1-192 partner limits assumed)": "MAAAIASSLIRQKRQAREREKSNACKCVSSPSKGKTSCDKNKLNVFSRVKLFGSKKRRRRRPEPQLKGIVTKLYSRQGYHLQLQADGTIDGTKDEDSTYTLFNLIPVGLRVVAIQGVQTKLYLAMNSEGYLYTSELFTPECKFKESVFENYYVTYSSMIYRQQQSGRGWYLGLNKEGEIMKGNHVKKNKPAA", "T1 sequence (Q15858 1-1977 isoform Q15858-3)": "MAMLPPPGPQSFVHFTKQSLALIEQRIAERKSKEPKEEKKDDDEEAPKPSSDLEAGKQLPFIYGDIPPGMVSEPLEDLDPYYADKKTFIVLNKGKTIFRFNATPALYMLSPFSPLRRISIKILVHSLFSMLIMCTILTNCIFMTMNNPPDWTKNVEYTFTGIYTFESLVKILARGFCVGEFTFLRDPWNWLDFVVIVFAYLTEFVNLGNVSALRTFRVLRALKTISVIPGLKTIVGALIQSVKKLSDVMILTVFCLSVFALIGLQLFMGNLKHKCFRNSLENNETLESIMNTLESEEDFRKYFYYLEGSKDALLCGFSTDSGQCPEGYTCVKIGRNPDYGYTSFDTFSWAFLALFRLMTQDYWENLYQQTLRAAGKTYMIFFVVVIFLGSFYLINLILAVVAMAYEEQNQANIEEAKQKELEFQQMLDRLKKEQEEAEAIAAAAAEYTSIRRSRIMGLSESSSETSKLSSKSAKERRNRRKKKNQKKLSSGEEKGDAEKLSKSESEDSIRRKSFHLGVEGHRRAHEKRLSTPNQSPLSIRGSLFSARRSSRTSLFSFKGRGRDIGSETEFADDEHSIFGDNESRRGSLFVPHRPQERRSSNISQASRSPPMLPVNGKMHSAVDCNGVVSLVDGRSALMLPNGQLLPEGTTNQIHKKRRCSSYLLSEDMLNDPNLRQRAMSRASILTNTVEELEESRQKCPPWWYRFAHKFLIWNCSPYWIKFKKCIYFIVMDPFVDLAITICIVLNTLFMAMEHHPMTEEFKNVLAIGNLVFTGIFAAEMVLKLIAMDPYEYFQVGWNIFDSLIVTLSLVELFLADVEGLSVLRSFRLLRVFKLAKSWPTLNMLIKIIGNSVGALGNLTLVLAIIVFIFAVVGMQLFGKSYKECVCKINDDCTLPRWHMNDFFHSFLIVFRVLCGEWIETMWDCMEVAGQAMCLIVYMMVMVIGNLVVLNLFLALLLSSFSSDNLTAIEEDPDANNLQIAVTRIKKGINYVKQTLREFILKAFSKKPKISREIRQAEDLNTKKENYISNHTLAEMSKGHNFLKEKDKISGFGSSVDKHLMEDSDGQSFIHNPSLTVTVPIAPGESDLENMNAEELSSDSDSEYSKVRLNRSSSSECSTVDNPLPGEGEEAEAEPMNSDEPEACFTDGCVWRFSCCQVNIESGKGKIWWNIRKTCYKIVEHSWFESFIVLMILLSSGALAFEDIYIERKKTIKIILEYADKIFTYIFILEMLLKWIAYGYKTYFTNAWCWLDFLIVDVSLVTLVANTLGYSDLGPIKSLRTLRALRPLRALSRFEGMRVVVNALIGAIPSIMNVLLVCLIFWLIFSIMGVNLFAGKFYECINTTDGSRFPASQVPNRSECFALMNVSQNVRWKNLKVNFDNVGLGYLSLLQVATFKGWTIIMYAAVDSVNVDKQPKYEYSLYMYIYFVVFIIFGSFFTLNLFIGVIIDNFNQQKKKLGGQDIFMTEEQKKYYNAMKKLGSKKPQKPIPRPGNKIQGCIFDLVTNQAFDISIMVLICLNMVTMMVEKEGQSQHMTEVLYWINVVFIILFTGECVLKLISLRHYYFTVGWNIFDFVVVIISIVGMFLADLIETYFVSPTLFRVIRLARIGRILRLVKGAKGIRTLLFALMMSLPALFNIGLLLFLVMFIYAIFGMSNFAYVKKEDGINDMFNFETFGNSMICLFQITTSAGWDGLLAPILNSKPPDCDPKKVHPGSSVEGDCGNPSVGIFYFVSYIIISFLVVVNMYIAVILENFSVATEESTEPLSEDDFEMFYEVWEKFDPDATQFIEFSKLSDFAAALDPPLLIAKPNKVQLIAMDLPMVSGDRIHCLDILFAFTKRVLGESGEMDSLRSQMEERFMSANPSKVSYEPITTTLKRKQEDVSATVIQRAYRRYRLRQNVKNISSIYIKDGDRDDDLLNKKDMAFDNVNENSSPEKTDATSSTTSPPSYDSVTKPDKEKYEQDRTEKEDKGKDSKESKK", "assay": "Whole-cell patch-clamp, HEK293 cells stably expressing human Nav1.7 with GFP or FGF13-GFP", "format": "cell-based", "set-up": "Nav1.7 repriming time course, Mean / Figure 4I, Mean versus Time (ms): unit not given here", "conditions": "for use dependency, normalized INa amplitude, Mean: Fig 1I; for long-term inactivation, Mean: Fig 1J; for Nav1.7 repriming time course, Mean: Fig 1K; for Nav1.7 repriming time course, Mean / Time constant of repriming, Mean: PW164; for Time constant of repriming, Mean: Fig 1L", "experimental": "Whole-cell patch clamp electrophysiology\nHEK293-Nav1.7 cells, HEK293 stably expressing human Nav1.6 (HEK-Nav1.6), HEK293 stably expressing human Nav1.5 (HEK-Nav1.5), human hIPSC-derived sensory neurons (RealDRGTM from Anatomic Incorporated 1020F1-1M) and donor-derived DRG neurons were plated at low density on glass coverslips and processed for whole-cell patch clamp electrophysiology in voltage-clamp and/or current clamp mode. Whole-cell patch electrophysiological experiments were conducted following previously published studies (26). Current densities were obtained by dividing INa amplitude by membrane capacitance. Current –voltage relationships were generated by plotting current density as a function of the […]. Conductance (G Na) was calculated by the […]\nwhere INa is the current amplitude at voltage Vm, and Erev is the Na+ reversal potential.\nActivation curves were derived by plotting normalized GNa as a function of test potential and fitted using […]\nWhere GNa,Max is the maximum conductance, Va is the membrane potential of half-maximal activation, Em is the membrane voltage and k is the slope factor. For steady -state inactivation, normalized current amplitude (INa/INa,Max) at the test potential was plotted as a function of prepulse potential (Vm) and fitted using the […]\nWhere Vh is the potential of half-maximal inactivation, E m is the membrane voltage, and k is the slope factor.\nTransient INa inactivation decay was estimated with the standard exponential equation. Inactivation time constant (tau, τ) was fitted with the following equation: […]\nwhere I(t) is the amplitude of the current at time t and Iss is the steady-state current during a single voltage-step.\nThe goodness of fitting was determined by correlation coefficient (R), and the cutoff of R was set at 0.85. To observe effects on long-term inactivation (LTI), a four-step protocol was employed during which cells were subjected to four 0 mV, 20 ms depolarization pulses separated by −90 mV, 40 ms recovery intervals. To control for various cell sizes, the current densities were calculated by dividing INa peak current amplitude/membrane capacitance (Cm). To represent the fraction of channels entering into LTI, the peak INa observed during depolarization cycles 2-4 was normalized to the peak INa observed during depolarization cycle 1 (INa/INa,Cycle 1) and plotted as a function of the depolarization cycle.\nThe cumulative (frequency-dependent) use-dependency was determined by applying 20 pulses with a depolarization to −10 mV (50 ms duration) and 50 ms recovery intervals with a train of 20 pulses at 10 Hz from a holding potential at -70 mV. The current pulses were normalized to the first reco rded pulse and the currents at the 2nd to 20th pulses were compared. The same train was used to record use-dependency at various frequencies […]\nThe rate of recovery from inactivation was recorded at -80 mV with a standard repriming voltage protocol.\nThe cells were prepulsed to -20 mV for 20 ms to inactivate all currents, then driven back to the recovery potential (Vrec) for increasing recovery durations before the test pulse to 0 mV. The maximum pulse rate was 0.5 Hz. The […]\nfollows previous publications (16). The time constants were estimated from single exponential decay to time courses measured at recovery potentials ranging from -140 to -60 mV with the protocol as mentioned above.\nElectrophysiological Recordings\nHEK293 cells: Electrophysiological recordings in HEK293 stably expressing Nav1.7 (HEK-Nav1.7), Nav1.5 (HEK-Nav1.5) or Nav1.6 (HEK-Nav1.6) were performed at room temperature using a MultiClamp 700B or an Axopatch 200B amplifier (Molecular Devices) after incubating coverslips for 60 minutes either with 0.1% DMSO or 50 μM PW164 or ZL192 in the extracellular solution. The composition of recording solutions consisted of the […]\nfollowing salts: extracellular (mM): 140 NaCl, 3 KCl, 1 MgCl2, 1 CaCl2, 10 HEPES, 10 glucose, pH 7.3; […]\nintracellular (mM): 130 CH3O3 SCs, 1 EGTA, 10 NaCl, 10 HEPES, pH 7.3. […]", "note": "Residues, ends and D or L forms follow the SMILES beside them. *: point of attachment. Cbz = O=C(OCc1ccccc1)*; OtBu = CC(C)(C)O*", "data": [{"smiles": "COC(=O)[C@@H](NC(=O)[C@H](CCC(=O)OC(C)(C)C)NC(=O)[C@H](CC(C)C)NC(=O)[C@@H]1CCCN1C(=O)OCc1ccccc1)C(C)C", "note": "[PW164] (Cbz-PLE(OtBu)V-OMe)", "values": [{"measurement": "use dependency, normalized INa amplitude, Mean", "setting": "FGF13-GFP + PW164, Pulse 1", "result": 1}, {"measurement": "use dependency, normalized INa amplitude, Mean", "setting": "FGF13-GFP + PW164, Pulse 3", "result": 0.7166}, {"measurement": "use dependency, normalized INa amplitude, Mean", "setting": "FGF13-GFP + PW164, Pulse 6", "result": 0.6629}, {"measurement": "use dependency, normalized INa amplitude, Mean", "setting": "FGF13-GFP + PW164, Pulse 10", "result": 0.6585}, {"measurement": "use dependency, normalized INa amplitude, Mean", "setting": "FGF13-GFP + PW164, Pulse 15", "result": 0.6477}, {"measurement": "use dependency, normalized INa amplitude, Mean", "setting": "FGF13-GFP + PW164, Pulse 20", "result": 0.6421}, {"measurement": "use dependency, normalized INa amplitude, Mean", "setting": "GFP + PW164, Pulse 1", "result": 1}, {"measurement": "use dependency, normalized INa amplitude, Mean", "setting": "GFP + PW164, Pulse 3", "result": 0.9017}, {"measurement": "use dependency, normalized INa amplitude, Mean", "setting": "GFP + PW164, Pulse 6", "result": 0.9079}, {"measurement": "use dependency, normalized INa amplitude, Mean", "setting": "GFP + PW164, Pulse 10", "result": 0.9071}, {"measurement": "use dependency, normalized INa amplitude, Mean", "setting": "GFP + PW164, Pulse 15", "result": 0.9039}, {"measurement": "use dependency, normalized INa amplitude, Mean", "setting": "GFP + PW164, Pulse 20", "result": 0.8633}, {"measurement": "long-term inactivation, Mean", "setting": "FGF13-GFP + PW164, Pulse 1", "result": 100}, {"measurement": "long-term inactivation, Mean", "setting": "FGF13-GFP + PW164, Pulse 2", "result": 69.7175}, {"measurement": "long-term inactivation, Mean", "setting": "FGF13-GFP + PW164, Pulse 3", "result": 60.3266}, {"measurement": "long-term inactivation, Mean", "setting": "FGF13-GFP + PW164, Pulse 4", "result": 59.3421}, {"measurement": "long-term inactivation, Mean", "setting": "GFP + PW164, Pulse 1", "result": 100}, {"measurement": "long-term inactivation, Mean", "setting": "GFP + PW164, Pulse 2", "result": 67.9412}, {"measurement": "long-term inactivation, Mean", "setting": "GFP + PW164, Pulse 3", "result": 62.3462}, {"measurement": "long-term inactivation, Mean", "setting": "GFP + PW164, Pulse 4", "result": 60.9288}, {"measurement": "Nav1.7 repriming time course, Mean", "setting": "Nav1.7 + FGF13-GFP, Time (ms) 2", "result": -1.745}, {"measurement": "Nav1.7 repriming time course, Mean", "setting": "Nav1.7 + FGF13-GFP, Time (ms) 5", "result": -3.217}, {"measurement": "Nav1.7 repriming time course, Mean", "setting": "Nav1.7 + FGF13-GFP, Time (ms) 9", "result": -6.791}, {"measurement": "Nav1.7 repriming time course, Mean", "setting": "Nav1.7 + FGF13-GFP, Time (ms) 17", "result": -10.2331}, {"measurement": "Nav1.7 repriming time course, Mean", "setting": "Nav1.7 + FGF13-GFP, Time (ms) 33", "result": -13.6908}, {"measurement": "Nav1.7 repriming time course, Mean", "setting": "Nav1.7 + FGF13-GFP, Time (ms) 65", "result": -18.7676}, {"measurement": "Nav1.7 repriming time course, Mean", "setting": "Nav1.7 + FGF13-GFP, Time (ms) 129", "result": -22.4288}, {"measurement": "Nav1.7 repriming time course, Mean", "setting": "Nav1.7 + FGF13-GFP, Time (ms) 257", "result": -26.5719}, {"measurement": "Nav1.7 repriming time course, Mean", "setting": "Nav1.7 + FGF13-GFP, Time (ms) 513", "result": -28.3171}, {"measurement": "Nav1.7 repriming time course, Mean", "setting": "Nav1.7 + FGF13-GFP, Time (ms) 1025", "result": -29.4614}, {"measurement": "Nav1.7 repriming time course, Mean", "setting": "Nav1.7 + FGF13-GFP, Time (ms) 2000", "result": -30.5045}, {"measurement": "Nav1.7 repriming time course, Mean", "setting": "Nav1.7 + GFP, Time (ms) 2", "result": -0.8155}, {"measurement": "Nav1.7 repriming time course, Mean", "setting": "Nav1.7 + GFP, Time (ms) 5", "result": -1.631}, {"measurement": "Nav1.7 repriming time course, Mean", "setting": "Nav1.7 + GFP, Time (ms) 9", "result": -4.0928}, {"measurement": "Nav1.7 repriming time course, Mean", "setting": "Nav1.7 + GFP, Time (ms) 17", "result": -9.754}, {"measurement": "Nav1.7 repriming time course, Mean", "setting": "Nav1.7 + GFP, Time (ms) 33", "result": -14.6809}, {"measurement": "Nav1.7 repriming time course, Mean", "setting": "Nav1.7 + GFP, Time (ms) 65", "result": -21.498}, {"measurement": "Nav1.7 repriming time course, Mean", "setting": "Nav1.7 + GFP, Time (ms) 129", "result": -26.6853}, {"measurement": "Nav1.7 repriming time course, Mean", "setting": "Nav1.7 + GFP, Time (ms) 257", "result": -32.6576}, {"measurement": "Nav1.7 repriming time course, Mean", "setting": "Nav1.7 + GFP, Time (ms) 513", "result": -33.7798}, {"measurement": "Nav1.7 repriming time course, Mean", "setting": "Nav1.7 + GFP, Time (ms) 1025", "result": -35.5926}, {"measurement": "Nav1.7 repriming time course, Mean", "setting": "Nav1.7 + GFP, Time (ms) 2000", "result": -36.9364}, {"measurement": "Time constant of repriming, Mean", "setting": "Nav1.7 + FGF13-GFP, recovery potential -60", "result": 51.44, "unit": "ms"}, {"measurement": "Time constant of repriming, Mean", "setting": "Nav1.7 + FGF13-GFP, recovery potential -70", "result": 60.77, "unit": "ms"}, {"measurement": "Time constant of repriming, Mean", "setting": "Nav1.7 + FGF13-GFP, recovery potential -80", "result": 68.88, "unit": "ms"}, {"measurement": "Time constant of repriming, Mean", "setting": "Nav1.7 + FGF13-GFP, recovery potential -90", "result": 64.58, "unit": "ms"}]}]}
